The target of one test is T1, human Tie2 (Homo sapiens, UniProt Q02763).
T1 construct: human Tie2 corresponding to amino acids 776-1124 of the intracellular domain was generated by PCR; made in house; host or cells: baculovirus expression system (vector pFastBacGT)
Briefly: Tie2 kinase inhibition: phosphorylation of GST-PLC (SH2-SH3 fragments) by GST-Tie2, 33P-ATP flashplate. To be noted: read-out: Tie2 % Inhib. 10 μM. Format: biochemical. As for the experimental part:
The coding sequence of human Tie2 corresponding to amino acids 776-1124 of the intracellular domain was generated by PCR using the cDNA isolated from human placenta as model. This sequence was introduced into a baculovirus expression vector pFastBacGT in the form of a GST fusion protein.
The inhibitory effect of the molecules is determined in an assay for phosphorylation of PLC by Tie2 in the presence of GST-Tie2 purified to approximately 80% homogeneity. The substrate is made up of the SH2-SH3 fragments of PLC, the latter being expressed in the form of a GST fusion protein.
The kinase activity of Tie2 is measured in a 20 mM MOPS buffer, pH 7.2, containing 10 mM MgCl2, 10 mM MnCl2, 1 mM DTT and 10 mM of glycerophosphate. A reaction mixture made up of 70 μl of kinase buffer containing 100 ng of GST-Tie2 enzyme per well is placed in a flashplate 96-well plate kept on ice. 10 μl of the molecule to be tested, diluted in DMSO, at a concentration of at most 10% are then added. For a given concentration, each measurement is carried out in quadruplicate. The reaction is initiated by adding 20 μl of solution containing 2 μg of GST-PLC, 2 μM of cold ATP and 1 μCi of ^33P[ATP]. After incubation for 1 hour at 37° C., the reaction is stopped by adding 1 volume (100 μl) of 200 mM EDTA. After removal of the incubation buffer, the wells are washed three times with 300 μl of PBS. The radioactivity is measured on a Wallac MicroBeta 1450.
The inhibition of the Tie2 activity is calculated and expressed as percentage inhibition with respect to the control activity determined in the absence of compound.

Another test deals with T2, human KDR enzyme (Homo sapiens, UniProt P35968).
T2 construct: The cytoplasmic domain of the human KDR enzyme was cloned in GST fusion form; GST; made in house; host or cells: SF21 insect cells (baculovirus, pFastBac)
Briefly: KDR kinase inhibition: phosphorylation of PLCγ SH2-SH3 substrate by KDR enzyme, 33P-ATP scintillation plate. The note with it: read-out: KDR % Inhib. 10 μM. Format: biochemical. As for the experimental part:
The inhibitory effect of the compounds is determined in an assay for phosphorylation of substrate by the KDR enzyme in vitro using a scintillation technique (96-well plate, NEN).
The cytoplasmic domain of the human KDR enzyme was cloned in GST fusion form into the baculovirus expression vector pFastBac. The protein was expressed in SF21 cells and purified to approximately 60% homogeneity. The KDR kinase activity is measured in 20 mM MOPS, 10 mM MgCl2, 10 mM MnCl2, 1 mM DTT, 2.5 mM EGTA, 10 mM b-glycerophosphate, pH=7.2, in the presence of 10 mM MgCl2, 100 μM Na3VO4 and 1 mM NaF. 10 μl of the compound are added to 70 μl of kinase buffer containing 100 ng of KDR enzyme at 4° C. The reaction is initiated by adding 20 μl of solution containing 2 μg of substrate (SH2-SH3 fragment of PLCγ expressed in the form of an GST fusion protein), 2 μCi γ ^33P[ATP] and 2 μM cold ATP. After incubation for 1 hour at 37° C., the reaction is stopped by adding 1 volume (100 μl) of 200 mM EDTA. The incubation buffer is removed and the wells are washed three times with 300 μl of PBS. The radioactivity is measured in each well using a Top Count NXT (Packard) radioactivity counter.
The background noise is determined by measuring the radioactivity in four different wells containing the radioactive ATP and the substrate alone.
A total activity control is measured in four different wells containing all the reagents (γ^33P-[ATP], KDR and PLC-γ substrate) but in the absence of compound.
The inhibition of the KDR activity with the compound of the invention is expressed as percentage inhibition of the control activity determined in the absence of compound.
The compound SU5614 (Calbiochem) (1 μM) is included in each plate as inhibition control.

T2 sequence (P35968 786-1356 limits assumed): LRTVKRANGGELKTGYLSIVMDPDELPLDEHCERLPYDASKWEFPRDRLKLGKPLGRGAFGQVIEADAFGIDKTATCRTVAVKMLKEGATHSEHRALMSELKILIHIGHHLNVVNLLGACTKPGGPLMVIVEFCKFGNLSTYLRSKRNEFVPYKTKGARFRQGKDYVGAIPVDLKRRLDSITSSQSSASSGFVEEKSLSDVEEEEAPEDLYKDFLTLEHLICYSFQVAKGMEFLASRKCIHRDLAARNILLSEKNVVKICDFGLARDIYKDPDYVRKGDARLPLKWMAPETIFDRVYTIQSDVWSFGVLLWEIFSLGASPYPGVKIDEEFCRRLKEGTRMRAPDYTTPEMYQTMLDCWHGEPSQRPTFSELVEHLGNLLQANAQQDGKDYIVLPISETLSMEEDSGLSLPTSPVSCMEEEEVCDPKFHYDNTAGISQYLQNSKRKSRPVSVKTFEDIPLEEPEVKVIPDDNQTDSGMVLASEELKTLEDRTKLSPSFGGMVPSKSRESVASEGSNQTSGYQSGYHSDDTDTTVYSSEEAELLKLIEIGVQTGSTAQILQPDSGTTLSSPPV
T1 sequence (Q02763 776-1124): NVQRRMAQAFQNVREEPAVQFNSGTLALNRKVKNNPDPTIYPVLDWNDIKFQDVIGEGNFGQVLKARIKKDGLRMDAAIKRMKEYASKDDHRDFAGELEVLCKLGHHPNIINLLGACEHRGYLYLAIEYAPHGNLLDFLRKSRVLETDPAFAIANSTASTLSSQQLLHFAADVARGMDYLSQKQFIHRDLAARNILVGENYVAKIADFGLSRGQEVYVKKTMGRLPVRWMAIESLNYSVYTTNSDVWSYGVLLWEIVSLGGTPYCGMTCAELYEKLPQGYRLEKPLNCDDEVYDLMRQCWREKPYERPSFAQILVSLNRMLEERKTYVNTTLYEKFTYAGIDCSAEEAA

As for `COc1cc(C)ccc1S(=O)(=O)Nc1ccc(N2CCc3c(n[nH]c3-c3nc4cc(C)c(C)cc4[nH]3)C2)nc1`, the inhibition at 10 µM on human Tie2 amounted to 98%.

Turning to `Cc1cc2nc(-c3[nH]nc4c3CCN(c3ccc(NS(=O)(=O)c5cccs5)cn3)C4)[nH]c2cc1C`, the inhibition at 10 µM on human Tie2 amounted to 100%.

On to `COc1ccc(S(=O)(=O)Nc2ccc(N3CCc4c(n[nH]c4-c4nc5cc(C)c(C)cc5[nH]4)C3)nc2)cc1`, for which the inhibition at 10 µM at human Tie2 was determined as 99%.

As for `Cc1cc2nc(-c3[nH]nc4c3CCN(c3ccc(NS(=O)(=O)c5ccccc5Cl)cn3)C4)[nH]c2cc1C`, on human Tie2, the inhibition at 10 µM worked out at 100%.

Take `Cc1cc2nc(-c3[nH]nc4c3CCN(C(=O)NCCc3ccccc3)C4)[nH]c2cc1C` [Chemistry 2]: at human KDR enzyme, the inhibition at 10 µM came out at 77.2%.

As for `Cc1cc2nc(-c3[nH]nc4c3CCN(S(C)(=O)=O)C4)[nH]c2cc1C` [Chemistry 3], the inhibition at 10 µM at human KDR enzyme amounted to 78.1%.

Turning to `Cc1cc2nc(-c3[nH]nc4c3CCN(C(=O)c3cccnc3)C4)[nH]c2cc1C` [Chemistry 4], on human KDR enzyme, the inhibition at 10 µM worked out at 25.4%.

As for `Cc1cc2nc(-c3[nH]nc4c3CCN(Cc3cccc(Cl)c3)C4)[nH]c2cc1C` [Chemistry 5], the inhibition at 10 µM on human KDR enzyme turned out to be 88.8%.

For the molecule `Cc1cc2nc(-c3[nH]nc4c3CCN(CC(C)C)C4)[nH]c2cc1C` [Chemistry 6], the inhibition at 10 µM at human Tie2 is 41.2%; at human KDR enzyme, 2.1%.

On to `Cc1cc2nc(-c3[nH]nc4c3CCN(C)C4)[nH]c2cc1C` [Chemistry 7], for which the inhibition at 10 µM at human Tie2 is 48.6%; on human KDR enzyme, 12.2%.

In the case of `Cc1cc2nc(-c3[nH]nc4c3CCN(Cc3ccccc3)C4)[nH]c2cc1C` [Chemistry 8], the inhibition at 10 µM on human Tie2 came to 64.3%; at human KDR enzyme, 85.5%.

Turning to `Cc1cc2nc(-c3[nH]nc4c3CCN(CCc3ccccc3)C4)[nH]c2cc1C` [Chemistry 9], the values for the inhibition at 10 µM at human Tie2 and at human KDR enzyme were 56.7% and 15.4%, respectively.

For the molecule `Cc1cc2nc(-c3[nH]nc4c3CCN(Cc3cccc(Cl)c3Cl)C4)[nH]c2cc1C` [Chemistry 10], the inhibition at 10 µM came out at 83.9% at human Tie2 and 79.5% at human KDR enzyme.

Regarding `Cc1cc2nc(-c3[nH]nc4c3CCN(Cc3ccco3)C4)[nH]c2cc1C` [Chemistry 11], the inhibition at 10 µM at human Tie2 was 66.1%; on human KDR enzyme, 70.3%.

As to `Cc1cc2nc(-c3[nH]nc4c3CCN(Cc3ccc(Cl)cc3)C4)[nH]c2cc1C` [Chemistry 12], the inhibition at 10 µM at human Tie2 turned out to be 60.3%; at human KDR enzyme, 69%.

Turning to `Cc1cc2nc(-c3[nH]nc4c3CCN(Cc3cccs3)C4)[nH]c2cc1C` [Chemistry 13], the inhibition at 10 µM on human Tie2 was 41.5%; on human KDR enzyme it was 84.5%.

Consider `Cc1cc2nc(-c3[nH]nc4c3CCN(Cc3cccnc3)C4)[nH]c2cc1C` [Chemistry 14], for which the inhibition at 10 µM came to 50.5% on human Tie2 and 14.8% at human KDR enzyme.

Turning to `Cc1cc2nc(-c3[nH]nc4c3CCN(CC(C)(C)C)C4)[nH]c2cc1C` [Chemistry 15], the inhibition at 10 µM on human Tie2 came to 69.4%; at human KDR enzyme, 39.3%.

`CCN1CCc2c(n[nH]c2-c2nc3cc(C)c(C)cc3[nH]2)C1` [Chemistry 16]: the inhibition at 10 µM is 36.4% at human Tie2 and -5.75% on human KDR enzyme.

On to `Cc1cc2nc(-c3[nH]nc4c3CCN(CCC(C)C)C4)[nH]c2cc1C` [Chemistry 17], for which the inhibition at 10 µM at human Tie2 is 50.7%; at human KDR enzyme it was -2.9%.

Take `CCCN1CCc2c(n[nH]c2-c2nc3cc(C)c(C)cc3[nH]2)C1` [Chemistry 18]: the inhibition at 10 µM on human Tie2 is 55%; at human KDR enzyme, -3.7%.

`Cc1cc2nc(-c3[nH]nc4c3CCN(CCCc3ccccc3)C4)[nH]c2cc1C` [Chemistry 19]: the inhibition at 10 µM at human Tie2 was found to be 68.1%; at human KDR enzyme, 17.9%.

For the molecule `CCCCN1CCc2c(n[nH]c2-c2nc3cc(C)c(C)cc3[nH]2)C1` [Chemistry 20], the inhibition at 10 µM on human Tie2 came to 47.6%; on human KDR enzyme it was 1.65%.

Turning to `Cc1cc2nc(-c3[nH]nc4c3CCN(CC3CC3)C4)[nH]c2cc1C` [Chemistry 21], the inhibition at 10 µM was found to be 33% on human Tie2 and 1.85% at human KDR enzyme.

The record behind these values is US7435820B2, “Substituted tetrahydro-1H-pyrazolo [3,4-c]pyridines compositions comprising them, and use” (Aventis Pharma S.A., priority 2003, dated 2008).
